In patent US8450366B2, “Isobenzofuran analogs of sclerophytin A” (Board of Trustees of the University of Arkansas, priority 2009, dated 2013):
≈ marks a conversion by molar mass, not a printed value. Where “and” joins values, the source holds several entries; their conditions need not be identical. Equal entries are not always repeated. Where two headings read alike, the source gives them in different places.

Columns and labels:
[1] = tested on: KB-3 human carcinoma cell line; assay: MTT colorimetric assay of KB-3 cell viability; assay type: cell-based; settings: for IC50: KB-3 cells, 96 h treatment, triplicate, read-out: IC50, inhibition of KB-3 cell survival assessed by MTT viability assay
Procedure: The human KB-3 carcinoma cell line was used to perform the MTT colorimetric assay of cell viability.(22-24) Cells were treated with increasing concentrations of compounds to assess their growth inhibitory properties. IC50 values (concentration of the drug required to reduce cell viability by 50%) ranged from 1 to >100 μM (Table 1).
Inhibition of cell proliferation was assessed by the MTT assay. This assay is based on the ability of a mitochondrial dehydrogenase enzyme from viable cells to cleave the tetrazolium rings of the pale yellow 3-(4,5-dimethylthiazol-2-yl)-2,5-diphenyltetrazolium bromide (MTT) and form a dark blue formazan crystal product which is largely impermeable to cell membranes, thus resulting in its accumulation within healthy cells.(22) Solubilization of the cells by the addition of solvent results in the liberation of the crystals which are solubilized. The level of the formazan product created is directly proportional to the number of living cells.(23,24)
All stock solutions of compounds were made at 10 mM in dimethyl sulfoxide (DMSO). DMSO and MTT were from Sigma Chemical Co. (St. Louis, Mo.). Cell culture reagents were obtained from Life Technologies (Carlsbad, Calif.). The KB-3 human carcinoma cell line was maintained in monolayer culture at 37° C. and 5% CO2 in Dulbecco's Modified Eagle's Medium, supplemented with 10% fetal bovine serum, 2 mM L-glutamine, 50 units/mL penicillin, and 50 μg/mL streptomycin.
KB-3 cells (2000/well) were plated in 96-well dishes, and after 24 h were treated with 0.1 nM-100 μM of the compound in question. […] After 96 h, cells were incubated with 50 μg MTT/well/0.2 mL for 4 h at 37° C., the media was removed, and the formazan crystals were dissolved in 0.15 mL of DMSO. Absorbance at 570 nm was measured with an ELx800™ Microplate Reader (Bio Tek Instruments, Inc., Winooski, Vt.). All treatments were performed in triplicate. Results are shown in FIGS. 1A-D as a percentage of control samples (mean±SD). IC50 is the concentration that reduced survival to 50% of the control (no drug).

60-cell line screening = assay: NCI Developmental Therapeutics 60-cell line screening, single dose; assay type: cell-based; settings: NCI 60-cell line screening
[2] = tested on: PC-3 prostate cancer cell line; assay: NCI 60-cell line single dose assay, PC-3; assay type: cell-based
[3] = tested on: RPMI-8226 leukemia cell line; assay: NCI 60-cell line single dose assay, RPMI-8226; assay type: cell-based
[4] = tested on: NCI-H522 non-small cell lung cancer cell line; assay: NCI 60-cell line single dose assay, NCI-H522; assay type: cell-based
entire leukemia panel = assay: NCI 60-cell line single dose assay, leukemia panel; assay type: cell-based
[5] = tested on: HOP-92 non-small cell lung cancer cell line; assay: NCI 5-dose testing, HOP-92; assay type: cell-based; settings: 5-dose testing, read-out: LC50 (the source's name)
[6] = tested on: RPMI-8226 leukemia cell line; assay: NCI 5-dose testing, RPMI-8226; assay type: cell-based; settings: 5-dose testing, read-out: LC50 (the source's name)
[7] = reported in the literature; cited from earlier work
L1210 cell line = settings: reported, cited from earlier work

Molecule: C=C(C)[C@H]1CC=C(C)[C@@]2(O)[C@@H]1[C@H](c1ccccc1Br)O[C@@H]2C(=O)OC [Compound 5a.i]
- IC50 [1]: 5 µM

Molecule: C=C(C)[C@H]1CC=C(C)[C@@]2(O)[C@@H]1[C@H](c1ccccc1Br)O[C@@H]2C(=O)OCC1CC1 [Compound 5a.ii]
- IC50 [1]: 50 µM

Molecule: C=C(C)[C@H]1CC=C(C)[C@@]2(O)[C@@H]1[C@H](c1ccccc1Br)O[C@@H]2C(=O)OCC1CCCC1 [Compound 5a.iii]
- IC50 [1]: > 100 µM

Molecule: C=C(C)[C@H]1CC=C(C)[C@@]2(O)[C@@H]1[C@H](c1ccccc1Br)O[C@@H]2C(=O)OCC [Compound 5a]
- IC50 [1]: ~20 µM and 20 µM

Molecule: C=C(C)[C@H]1CC=C(C)[C@@]2(O)[C@@H]1[C@H](c1cccc(Br)c1)O[C@@H]2C(=O)OCC [Compound 5b]
- IC50 [1]: 3 µM

Molecule: C=C(C)[C@H]1CC=C(C)[C@@]2(O)[C@@H]1[C@H](c1cccc(Cl)c1Cl)O[C@@H]2C(=O)OCC [Compound 5c]
- IC50 [1]: 5 µM

Molecule: C=C(C)[C@H]1CC=C(C)[C@@]2(O)[C@@H]1[C@H](c1ccc(Cl)cc1Cl)O[C@@H]2C(=O)OCC [Compound 5d]
- IC50 [1]: 3 µM
- activity in single dose assays (60-cell line screening): no significant activity

Molecule: C=C(C)[C@H]1CC=C(C)[C@@]2(O)[C@@H]1[C@H](c1cccc3ccccc13)O[C@@H]2C(=O)OC [Compound 5e]
- fold more active than the corresponding diene 10e ([1]; KB-3 IC50, entry 8 vs. entry 18): at least 10 fold
- IC50 [1]: 10 µM

Molecule: C=C(C)[C@H]1CC=C(C)[C@@]2(O)[C@@H]1[C@H](c1ccccn1)O[C@@H]2C(=O)OC [Compound 5f]
- IC50 ([1]; Homo sapiens, KB3): 100 µM

Molecule: C=C(C)[C@H]1CC=C(C)[C@@]2(O)[C@@H]1[C@H](c1cccc[n+]1C)O[C@@H]2C(=O)OC [Compound 5i]
- IC50 ([1]; Homo sapiens, KB3): > 100 µM

Molecule: C=C(C)[C@H]1CC(=O)C(C)=C2[C@@H](C(=O)OCC)O[C@@H](c3ccccc3Br)[C@@H]21 [Compound 6a]
- IC50 [1]: ~70 µM and 70 µM

Molecule: C=C(C)[C@H]1CC(=O)C(C)=C2[C@@H](C(=O)OCC)O[C@@H](c3cccc(Br)c3)[C@@H]21 [Compound 6b]
- IC50 [1]: 30 µM

Molecule: C=C(C)[C@H]1CC(=O)C(C)=C2[C@@H](C(=O)OCC)O[C@@H](c3cccc(Cl)c3Cl)[C@@H]21 [Compound 6c]
- IC50 [1]: 5 µM

Molecule: C=C(C)[C@H]1CC(=O)C(C)=C2[C@@H](C(=O)OCC)O[C@@H](c3ccc(Cl)cc3Cl)[C@@H]21 [Compound 6d]
- differential activity, single dose [2]: significant differential activity
- differential activity, single dose [3]: significant differential activity
- IC50 [1]: 3 µM

Molecule: C=C(C)[C@H]1CC=C(C)[C@@]2(O)[C@@H]1[C@H](c1ccccc1Br)O[C@@H]2C(=O)O [Compound 9]
- IC50 [1]: > 100 µM

Molecule: C=C(C)C1CC=C(C)C2=COC(c3ccccc3Br)C21 (centres unmarked) [Compound 10a]
- IC50 [1]: 4 µM

Molecule: C=C(C)C1CC=C(C)C2=COC(c3cccc4ccccc34)C21 (centres unmarked) [Compound 10e]
- IC50 [1]: > 100 µM

Molecule: C=C(C)C1CC=C(C)C2=COC(c3ccco3)C21 (centres unmarked) [Compound 10g]
- IC50 [1]: 2 µM

Molecule: C=C(C)C1CC=C(C)C2=COC(c3ccccc3F)C21 (centres unmarked) [Compound 10h]
- IC50 [1]: 1 µM
- differential activity, single dose [4]: significant differential activity
- differential activity, single dose (entire leukemia panel): significant differential activity
- CC50 [5]: 26.8 µM
- CC50 [6]: 9.36 µM

Molecule: CO[C@]12C=C[C@](C)(O1)[C@@H](OC(=O)/C=C/c1cn(C)cn1)C[C@H]1C(C)=CC[C@H](C(C)C)[C@H]1/C=C\2CO[C@@H]1OC[C@@H](O)[C@@H](O)[C@@H]1OC(C)=O [Eleutherobin]
- anti-mitotic activity [7]: taxol-like anti-mitotic activity

Molecule: C=C1CC[C@H](C(C)C)[C@@H]2[C@H]1[C@H]1C[C@](C)(O)[C@@H](O)CC[C@@](C)(O)[C@@H]2O1 [Sclerophytin A]
- IC50 (L1210 cell line; value in brackets, read-out: IC50, growth inhibitory activity against L1210): 3 nM
- IC50, growth inhibitory activity against L1210 (L1210 cell line): 1.0 ng/mL (≈ 2.95 nM)

Molecule: COC(=O)/C1=C/[C@@H]2[C@@H](C(C)C)CC=C(C)[C@@H]2C[C@H](OC(=O)/C=C/c2cn(C)cn2)[C@]2(C)C=C[C@@]1(O)O2 [sarcodictyins A, sarcodictyin A]
- anti-mitotic activity [7]: taxol-like anti-mitotic activity

Molecule: sarcodictyin B [sarcodictyins B]
- anti-mitotic activity [7]: taxol-like anti-mitotic activity
